Experiment: xn = mol fraction of the nth substance listed

CCOCCO + CCCCOC(C)=O
298.15 K, 101 kPa
Conditions | viscosity [mPa·s]
x1 = 0.0826 | 0.6948
x1 = 0.1249 | 0.7087
x1 = 0.1454 | 0.7178
x1 = 0.2182 | 0.7512
x1 = 0.3951 | 0.8537
x1 = 0.4691 | 0.9144
x1 = 0.502 | 0.9435
x1 = 0.5174 | 0.9569
x1 = 0.5604 | 0.9991
x1 = 0.6488 | 1.101
x1 = 0.7547 | 1.258
x1 = 0.7674 | 1.276
x1 = 0.7794 | 1.296
x1 = 0.9079 | 1.564
x1 = 0.9531 | 1.676
x1 = 0.9678 | 1.72

N#C[C-](C#N)C#N.OCCC[n+]1ccccc1 + c1ccsc1
101 kPa
Conditions | viscosity [mPa·s]
298.15 K, x1 = 0.5955 | 36.55
313.15 K, x1 = 0.9377 | 39.55

CNC(C)=O + c1ccccc1
308.15 K, 101.33 kPa
Conditions | viscosity [mPa·s]
x1 = 0.0294 | 0.4955
x1 = 0.226 | 0.8005
x1 = 0.3331 | 1.021
x1 = 0.437 | 1.255
x1 = 0.5349 | 1.51
x1 = 0.6329 | 1.78
x1 = 0.7301 | 2.099
x1 = 0.823 | 2.452
x1 = 0.9747 | 3.132

Oc1ccc(Cl)cc1 + O=Cc1ccccc1
308.15 K, 101.33 kPa
Conditions | viscosity [mPa·s]
x2 = 0.11 | 5.75
x2 = 0.304 | 3.8
x2 = 0.485 | 3.01
x2 = 0.56 | 2.495
x2 = 0.62 | 2.2
x2 = 0.728 | 1.79
x2 = 0.907 | 1.388

CCOCCO + CCO
298.15 K, 101 kPa
Conditions | viscosity [mPa·s]
x1 = 0.0538 | 1.147
x1 = 0.1133 | 1.207
x1 = 0.1798 | 1.272
x1 = 0.2542 | 1.341
x1 = 0.3383 | 1.416
x1 = 0.4341 | 1.497
x1 = 0.544 | 1.581
x1 = 0.6716 | 1.669
x1 = 0.8215 | 1.761

CC(CC(C)(C)C)CP(=O)(O)CC(C)CC(C)(C)C (stereo not drawn) + CCCCCCCO
298.15 K, 101 kPa
Conditions | viscosity [mPa·s]
x1 = 0.0091 | 6.029
x1 = 0.0166 | 6.297
x1 = 0.0189 | 6.395
x2 = 0.0832 | 103
x2 = 0.1509 | 92.76
x2 = 0.2814 | 72.97
x2 = 0.4338 | 51.94
x2 = 0.5979 | 33.45
x2 = 0.6948 | 24.29
x2 = 0.7164 | 22.65
x2 = 0.819 | 14.88
x2 = 0.83 | 13.87
x2 = 0.8984 | 10.18
x2 = 0.9056 | 9.875
x2 = 0.9596 | 7.316

CCOCCO + Nc1ccccc1
303.15 K, 101 kPa
Conditions | viscosity [mPa·s]
x2 = 0.1062 | 2.266
x2 = 0.2109 | 2.394
x2 = 0.3142 | 2.523
x2 = 0.4162 | 2.74
x2 = 0.5167 | 2.94
x2 = 0.616 | 3.114
x2 = 0.7139 | 3.277
x2 = 0.8105 | 3.435
x2 = 0.9059 | 3.595

CC(CC(C)(C)C)CP(=O)(O)CC(C)CC(C)(C)C (stereo not drawn) + ClC(Cl)(Cl)Cl
298.15 K, 101 kPa
Conditions | viscosity [mPa·s]
x1 = 0.0063 | 0.961
x1 = 0.0131 | 1.04
x1 = 0.0159 | 1.076
x2 = 0.1192 | 98.3
x2 = 0.201 | 83.19
x2 = 0.3155 | 66.36
x2 = 0.5037 | 36.06
x2 = 0.6763 | 19.27
x2 = 0.7689 | 12.88
x2 = 0.7808 | 11.73
x2 = 0.8099 | 9.498
x2 = 0.86 | 5.932
x2 = 0.8741 | 4.951
x2 = 0.9286 | 2.263
x2 = 0.9325 | 2.124
x2 = 0.9717 | 1.255

Cn1cc[n+](CCCC#N)c1.O=S(=O)([O-])C(F)(F)F + CC#N
Conditions | viscosity [mPa·s]
298.15 K, 101 kPa, x1 = 0.7996 | 306.5

CC[N+](CC)(CC)CC.[Br-] + OCCO
viscosity [mPa·s], 100 kPa
Conditions | 298 K | 298.15 K | 308 K | 318 K
x1 = 0.333 | – | 37.5 | – | –
x2 = 0.75 | 28 | – | 18.5 | 13

CC(C)CCO + CCO
viscosity [mPa·s]
Conditions | x1 = 0.0558 | x1 = 0.1156 | x1 = 0.1843 | x1 = 0.2587 | x1 = 0.3588 | x1 = 0.4457 | x1 = 0.5523 | x1 = 0.6771 | x1 = 0.8255 | x2 = 0.5
298.15 K, 100 kPa | 1.291 | 1.591 | 1.919 | 2.235 | 2.576 | 2.831 | 3.086 | 3.312 | 3.463 | –
303.15 K, 100 kPa | 1.175 | 1.471 | 1.806 | 2.029 | 2.353 | 2.549 | 2.756 | 2.917 | 2.945 | –
308.15 K, 100 kPa | 1.236 | 1.672 | 2.049 | 2.279 | 2.559 | 2.699 | 2.763 | 2.814 | 2.815 | –
308.15 K, 101 kPa | – | – | – | – | – | – | – | – | – | 1.747
313.15 K, 101 kPa | – | – | – | – | – | – | – | – | – | 1.519
318.15 K, 101 kPa | – | – | – | – | – | – | – | – | – | 1.372

CNC(C)=O + Cc1cc(C)cc(C)c1
308.15 K, 101.33 kPa
Conditions | viscosity [mPa·s]
x1 = 0.0458 | 0.6101
x1 = 0.3137 | 1.08
x1 = 0.4362 | 1.342
x1 = 0.5467 | 1.621
x1 = 0.646 | 1.898
x1 = 0.7315 | 2.174
x1 = 0.8095 | 2.455
x1 = 0.8779 | 2.719
x2 = 0.0126 | 3.191

CCOCCO + CCCCCCCO
298.15 K, 101 kPa
Conditions | viscosity [mPa·s]
x1 = 0.1253 | 4.967
x1 = 0.2438 | 4.207
x1 = 0.3559 | 3.655
x1 = 0.4623 | 3.23
x1 = 0.5632 | 2.902
x1 = 0.6592 | 2.617
x1 = 0.7505 | 2.383
x1 = 0.8376 | 2.2
x1 = 0.9207 | 2.041

CCOCCO + CC#N
viscosity [mPa·s], 101.33 kPa
Conditions | x1 = 0.1016 | x1 = 0.2016 | x1 = 0.2865 | x1 = 0.4004 | x1 = 0.5026 | x1 = 0.6026 | x1 = 0.7122 | x1 = 0.7978 | x1 = 0.8997
298.15 K | 0.458 | 0.546 | 0.638 | 0.79 | 0.946 | 1.128 | 1.346 | 1.524 | 1.786
303.15 K | 0.389 | 0.461 | 0.535 | 0.655 | 0.781 | 0.921 | 1.075 | 1.236 | 1.435
308.15 K | 0.37 | 0.435 | 0.501 | 0.608 | 0.721 | 0.845 | 0.978 | 1.122 | 1.295

CNC(C)=O + CO
303.15 K, 101 kPa
Conditions | viscosity [mPa·s]
x1 = 0.0999 | 0.644
x1 = 0.2019 | 0.798
x1 = 0.3029 | 0.98
x1 = 0.3939 | 1.175
x1 = 0.504 | 1.457
x1 = 0.605 | 1.778
x1 = 0.6998 | 2.134
x1 = 0.7934 | 2.561
x1 = 0.8995 | 3.14

CCOCCO + NCCO
viscosity [mPa·s], 101 kPa
Conditions | 293.15 K | 298.15 K | 303.15 K | 308.15 K | 313.15 K | 318.15 K | 323.15 K
x2 = 0.141 | 2.898 | 2.544 | 2.246 | 1.998 | 1.786 | 1.605 | 1.449
x2 = 0.387 | 5.417 | 4.594 | 3.935 | 3.401 | 2.963 | 2.6 | 2.297
x2 = 0.596 | 9.217 | 7.588 | 6.312 | 5.319 | 4.527 | 3.89 | 3.371
x2 = 0.775 | 14.17 | 11.37 | 9.259 | 7.642 | 6.388 | 5.402 | 4.614
x2 = 0.93 | 20.26 | 15.94 | 12.77 | 10.37 | 8.539 | 7.122 | 6.005

CCOCCO + O=C1CCCO1
303.15 K, 101.33 kPa
Conditions | viscosity [mPa·s]
x1 = 0.0345 | 1.722
x1 = 0.0509 | 1.708
x1 = 0.0767 | 1.687
x1 = 0.1125 | 1.658
x1 = 0.2033 | 1.603
x1 = 0.3137 | 1.561
x1 = 0.4404 | 1.544
x1 = 0.5421 | 1.538
x1 = 0.6504 | 1.535
x1 = 0.8807 | 1.541
x1 = 0.9372 | 1.538
x1 = 0.9693 | 1.553

CCOCCO + CC(C)CC(C)(C)C
viscosity [mPa·s], 101.33 kPa
Conditions | x1 = 0.0991 | x1 = 0.1991 | x1 = 0.2975 | x1 = 0.4347 | x1 = 0.4972 | x1 = 0.6001 | x1 = 0.6976 | x1 = 0.7979 | x1 = 0.8986
298.15 K | 0.494 | 0.536 | 0.595 | 0.692 | 0.753 | 0.862 | 1.006 | 1.179 | 1.436
303.15 K | 0.466 | 0.5 | 0.552 | 0.648 | 0.694 | 0.797 | 0.913 | 1.086 | 1.292
308.15 K | 0.439 | 0.475 | 0.517 | 0.601 | 0.642 | 0.738 | 0.839 | 0.993 | 1.167
313.15 K | 0.415 | 0.445 | 0.483 | 0.56 | 0.597 | 0.677 | 0.767 | 0.901 | 1.066

CC(C)CCO + C1COCCO1
viscosity [mPa·s], 101 kPa
Conditions | x1 = 0.1 | x1 = 0.2067 | x1 = 0.3006 | x1 = 0.4011 | x1 = 0.5011 | x1 = 0.609 | x1 = 0.7009 | x1 = 0.8003 | x1 = 0.908
298.15 K | 1.135 | 1.151 | 1.189 | 1.261 | 1.37 | 1.519 | 1.737 | 2.122 | 2.79
303.15 K | 1.049 | 1.068 | 1.116 | 1.177 | 1.265 | 1.388 | 1.562 | 1.87 | 2.429
308.15 K | 0.9581 | 0.9865 | 1.039 | 1.097 | 1.156 | 1.243 | 1.359 | 1.615 | 2.081

CNC(C)=O + CC(C)O
303.15 K, 101 kPa
Conditions | viscosity [mPa·s]
x1 = 0.11 | 1.922
x1 = 0.2078 | 2.005
x1 = 0.3061 | 2.099
x1 = 0.3988 | 2.217
x1 = 0.4962 | 2.377
x1 = 0.5547 | 2.49
x1 = 0.6962 | 2.824
x1 = 0.8005 | 3.115
x1 = 0.8927 | 3.418

CNC(C)=O + CCCCn1cc[n+](C)c1.F[B-](F)(F)F
101 kPa
Conditions | viscosity [mPa·s]
293.15 K, x2 = 0.8495 | 82.55
308.15 K, x2 = 0.714 | 24.65

CCOCCO + CCCCCCCCC
viscosity [mPa·s], 101.33 kPa
Conditions | x1 = 0.098 | x1 = 0.2031 | x1 = 0.3023 | x1 = 0.4074 | x1 = 0.505 | x1 = 0.601 | x1 = 0.7022 | x1 = 0.8034 | x1 = 0.9003
298.15 K | 0.662 | 0.696 | 0.746 | 0.822 | 0.9 | 1.024 | 1.107 | 1.263 | 1.469
303.15 K | 0.62 | 0.646 | 0.69 | 0.753 | 0.821 | 0.929 | 1.005 | 1.137 | 1.316
308.15 K | 0.577 | 0.601 | 0.64 | 0.697 | 0.757 | 0.853 | 0.916 | 1.034 | 1.191
313.15 K | 0.537 | 0.558 | 0.596 | 0.642 | 0.698 | 0.778 | 0.837 | 0.939 | 1.075

CC(C)CCO + COCCO
303.15 K, 101.3 kPa
Conditions | viscosity [mPa·s]
x2 = 0.1536 | 2.477
x2 = 0.2181 | 2.305
x2 = 0.3068 | 2.095
x2 = 0.3756 | 1.955
x2 = 0.4802 | 1.772
x2 = 0.6881 | 1.512
x2 = 0.7438 | 1.47
x2 = 0.8293 | 1.413
x2 = 0.9356 | 1.38

From the CheMixHub viscosity set
